Measurements from the NIST ThermoML archive (doi:10.1021/acs.jced.8b00036).
“And” between values parts separate entries of the source, which are not always exact repeats. Equal values may be shown once.

Settings: Capillary tube (Ostwald / Ubbelohde) method

FC(F)(F)/C=C\C(F)(F)F [(Z)-1,1,1,4,4,4-hexafluorobut-2-ene]
Settings	viscosity
313.83 K, 513 kPa, Liquid	0.3037 mPa·s
313.84 K, 513 kPa, Liquid	0.3034 mPa·s
313.84 K, 514 kPa, Liquid	0.3036 mPa·s
313.92 K, 2053 kPa, Liquid	0.3115 mPa·s
313.94 K, 2037 kPa, Liquid	0.3097 mPa·s
313.94 K, 2996 kPa, Liquid	0.3143 mPa·s
313.94 K, 3001 kPa, Liquid	0.3146 mPa·s
313.94 K, 4041 kPa, Liquid	0.3198 mPa·s
313.95 K, 2025 kPa, Liquid	0.3098 mPa·s
313.95 K, 3000 kPa, Liquid	0.3143 mPa·s
313.95 K, 4049 kPa, Liquid	0.3197 mPa·s
313.96 K, 4002 kPa, Liquid	0.3194 mPa·s
314.26 K, 1040 kPa, Liquid	0.3074 mPa·s
314.27 K, 1041 kPa, Liquid	0.3068 mPa·s
314.31 K, 1050 kPa, Liquid	0.3081 mPa·s
331.5 K, 503 kPa, Liquid	0.2577 mPa·s
331.5 K, 505 kPa, Liquid	0.2579 mPa·s
331.51 K, 506 kPa, Liquid	0.2578 mPa·s
331.57 K, 2020 kPa, Liquid	0.2593 mPa·s and 0.2599 mPa·s
331.57 K, 2033 kPa, Liquid	0.26 mPa·s
331.81 K, 1002 kPa, Liquid	0.2579 mPa·s
331.82 K, 1017 kPa, Liquid	0.259 mPa·s
331.83 K, 1015 kPa, Liquid	0.2588 mPa·s
331.84 K, 4062 kPa, Liquid	0.2658 mPa·s
331.85 K, 4047 kPa, Liquid	0.2652 mPa·s
331.87 K, 4059 kPa, Liquid	0.2651 mPa·s
331.94 K, 3026 kPa, Liquid	0.2608 mPa·s
331.94 K, 3039 kPa, Liquid	0.2617 mPa·s
331.94 K, 3040 kPa, Liquid	0.2617 mPa·s
353.79 K, 4019 kPa, Liquid	0.2122 mPa·s
353.8 K, 4020 kPa, Liquid	0.212 mPa·s and 0.2117 mPa·s
353.99 K, 2066 kPa, Liquid	0.2011 mPa·s
353.99 K, 2067 kPa, Liquid	0.2011 mPa·s
354 K, 2064 kPa, Liquid	0.201 mPa·s
354.08 K, 3022 kPa, Liquid	0.2047 mPa·s
354.1 K, 3021 kPa, Liquid	0.2032 mPa·s
354.23 K, 1032 kPa, Liquid	0.1944 mPa·s
354.23 K, 1033 kPa, Liquid	0.1942 mPa·s
354.24 K, 1031 kPa, Liquid	0.193 mPa·s
374.43 K, 4050 kPa, Liquid	0.1702 mPa·s
374.43 K, 4056 kPa, Liquid	0.1702 mPa·s
374.44 K, 2025 kPa, Liquid	0.1613 mPa·s
374.44 K, 4050 kPa, Liquid	0.1705 mPa·s
374.45 K, 2025 kPa, Liquid	0.1618 mPa·s
374.46 K, 2025 kPa, Liquid	0.1611 mPa·s
374.74 K, 3026 kPa, Liquid	0.1632 mPa·s and 0.1645 mPa·s
374.75 K, 3026 kPa, Liquid	0.1635 mPa·s
374.87 K, 492 kPa, Gas	0.013 mPa·s
374.88 K, 492 kPa, Gas	0.01305 mPa·s
393.63 K, 3044 kPa, Liquid	0.1336 mPa·s
393.64 K, 3044 kPa, Liquid	0.1339 mPa·s
393.65 K, 3044 kPa, Liquid	0.1332 mPa·s
393.65 K, 4017 kPa, Liquid	0.1377 mPa·s and 0.138 mPa·s and 0.1378 mPa·s
394 K, 2016 kPa, Liquid	0.1278 mPa·s
394.01 K, 2016 kPa, Liquid	0.128 mPa·s
394.03 K, 2016 kPa, Liquid	0.1282 mPa·s
394.16 K, 499 kPa, Gas	0.01348 mPa·s
394.19 K, 499 kPa, Gas	0.01343 mPa·s
413.55 K, 4046 kPa, Liquid	0.1104 mPa·s
413.56 K, 4047 kPa, Liquid	0.11 mPa·s
413.63 K, 3011 kPa, Liquid	0.103 mPa·s
413.63 K, 3015 kPa, Liquid	0.103 mPa·s
413.75 K, 3010 kPa, Liquid	0.1029 mPa·s
413.99 K, 503 kPa, Gas	0.01378 mPa·s
414.21 K, 503 kPa, Gas	0.01361 mPa·s
414.24 K, 1014 kPa, Gas	0.01449 mPa·s
414.29 K, 1033 kPa, Gas	0.01434 mPa·s and 0.01444 mPa·s
434.12 K, 3016 kPa, Liquid	0.07044 mPa·s and 0.07094 mPa·s
434.13 K, 3016 kPa, Liquid	0.07045 mPa·s
434.23 K, 502 kPa, Gas	0.01388 mPa·s
434.23 K, 503 kPa, Gas	0.01384 mPa·s
434.28 K, 1011 kPa, Gas	0.01451 mPa·s
434.28 K, 1012 kPa, Gas	0.01443 mPa·s
434.37 K, 4014 kPa, Liquid	0.08047 mPa·s and 0.08072 mPa·s and 0.08096 mPa·s
454.24 K, 506 kPa, Gas	0.01429 mPa·s
454.27 K, 506 kPa, Gas	0.0143 mPa·s
454.34 K, 1003 kPa, Gas	0.01547 mPa·s and 0.01568 mPa·s
454.57 K, 2031 kPa, Gas	0.01628 mPa·s
454.58 K, 2030 kPa, Gas	0.01633 mPa·s
473.27 K, 509 kPa, Gas	0.02101 mPa·s
474.67 K, 500 kPa, Gas	0.0152 mPa·s
474.69 K, 500 kPa, Gas	0.01519 mPa·s
474.82 K, 999 kPa, Gas	0.01587 mPa·s
474.83 K, 2004 kPa, Gas	0.0169 mPa·s
474.84 K, 2004 kPa, Gas	0.01661 mPa·s
474.85 K, 1000 kPa, Gas	0.01579 mPa·s

FCC(F)(F)F [1,1,1,2-tetrafluoroethane]
Liquid
Settings	viscosity [mPa·s]
312.75 K, 4064 kPa	0.1723
312.76 K, 4069 kPa	0.1731
312.77 K, 3061 kPa	0.1681
312.78 K, 3042 kPa	0.1684
312.78 K, 3061 kPa	0.1682
312.82 K, 4048 kPa	0.173
312.83 K, 1706 kPa	0.1656
312.96 K, 1701 kPa	0.165
313.01 K, 1763 kPa	0.1654
313.5 K, 1796 kPa	0.1656
332.79 K, 3072 kPa	0.1279
332.79 K, 3083 kPa	0.1284
332.8 K, 3079 kPa	0.1282
332.8 K, 4005 kPa	0.1325
332.81 K, 4008 kPa	0.1324
332.81 K, 4011 kPa	0.1325
354.96 K, 4007 kPa	0.09565
355.51 K, 4078 kPa	0.09407
355.94 K, 4155 kPa	0.09335
